From patent publication US20240280562A1, “METHOD FOR QUANTIFYING ODORS, CELLS USED IN SAME, AND METHOD FOR PRODUCING SAID CELLS” (KOMI HAKKO CORPORATION, priority 2017, published 2024)

What was measured:
Olfr1258 = Olfr1258 (Mus musculus, UniProt Q8VGN6); experiment: Reconstruction experiment: cAMP-responsive luciferase in HEK293 cells expressing Olfr1258; type: cell-based
[1] = tested on: olfactory sensory neurons; experiment: OneCell system Fluo-4 screening of olfactory epithelium-derived cells stimulated by an odor molecule; type: cell-based, mouse; details: 2-pentanone (30 mM) for 10 seconds and (3 mM) for 10 seconds; of approximately 10000 olfactory sensory neurons
Experimental: C57/BL6J (male) aged 3 to 5 weeks were purchased from Japan SLC, Inc. The mice were beheaded after intravenous anesthesia with […] of Urethane solution (300 mg/mL; U2500, Sigma-Aldrich) and olfactory epithelium was extracted on ice. […] An equal amount of Ca^2+ ringer solution containing 0.1 mg/mL DNase I, 0.1 mg/mL BSA, and […] leupeptin (0.025 mg/mL trypsin inhibitor in the case of trypsin) was added thereto to stop the enzyme reaction, and the obtained solution then allowed to pass through a cell strainer twice to remove large tissue fragments.
The sample after removal was subjected to centrifugation treatment, and this was washed once to obtain an olfactory epithelium-derived cell solution.
(§1) The olfactory epithelium-derived cells were stimulated as follows.
The olfactory epithelium-derived cells were stimulated by an odor molecule, 2-pentanone (30 mM) for 10 seconds and 2-pentanone (3 mM) for 10 seconds under the above conditions, and olfactory sensory neurons included in olfactory epithelium-derived cells were then identified by a high K^+ ringer solution. As a result, approximately 100 of approximately 10000 olfactory sensory neurons reacted with 2-pentanone. […]

Olfr168 [2] = biological target: T1, Olfr168 (Mus musculus, UniProt A0PK36); experiment: Fluo-4 Ca2+ uptake in isolated olfactory sensory neuron HI28-03 (calculation method (A)); type: cell-based; details: HI28-03 cells
T1 sequence (A0PK36 1-312): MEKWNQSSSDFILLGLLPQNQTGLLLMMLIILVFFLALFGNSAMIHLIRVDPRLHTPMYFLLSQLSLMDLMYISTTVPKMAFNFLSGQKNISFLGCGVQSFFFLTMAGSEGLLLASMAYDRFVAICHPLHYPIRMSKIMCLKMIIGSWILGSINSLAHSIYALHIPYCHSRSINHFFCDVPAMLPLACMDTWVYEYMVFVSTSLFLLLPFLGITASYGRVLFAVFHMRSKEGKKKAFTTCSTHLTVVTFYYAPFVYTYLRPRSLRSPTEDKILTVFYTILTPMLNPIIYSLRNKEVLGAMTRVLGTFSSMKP
Experimental: as §1
(§2) As a result, Olfr168 (mOR271-1; GenBank accession number: AY317252) and Olfr205 (mOR182-11P; GenBank accession number: BC150839) were identified in HI28-03 and HI25-18 respectively.
(§3) Specifically, the above Ca^2+ ringer solution was refluxed to the slide glass which had been put on the OneCell device and had stored olfactory epithelium-derived cells, and a Ca^2+ ringer solution containing 3 mM 2-pentanone described below was added thereto for 20 seconds every two minutes. The degree of increase in transient fluorescence intensity derived from Fluo-4 in each olfactory sensory neuron was repeatedly measured 5 times (FIG. 8).

Olfr205 [3] = biological target: T2, Olfr205 (Mus musculus, UniProt B9EKD6); experiment: Fluo-4 Ca2+ uptake in isolated olfactory sensory neuron HI25-18 (calculation method (A)); type: cell-based; details: HI25-18 cells
T2 sequence (B9EKD6 1-305): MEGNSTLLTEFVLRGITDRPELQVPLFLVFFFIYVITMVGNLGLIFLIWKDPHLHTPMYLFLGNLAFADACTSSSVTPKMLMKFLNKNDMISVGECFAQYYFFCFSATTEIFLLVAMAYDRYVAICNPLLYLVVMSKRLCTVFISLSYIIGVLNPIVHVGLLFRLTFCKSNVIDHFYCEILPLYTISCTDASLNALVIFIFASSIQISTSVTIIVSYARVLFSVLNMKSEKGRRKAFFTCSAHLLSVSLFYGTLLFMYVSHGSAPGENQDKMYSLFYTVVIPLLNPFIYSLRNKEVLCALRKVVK
Experimental: as §1, §2, §3

Olfr168 [4] = biological target: T1, Olfr168; experiment: Reconstruction experiment: cAMP-responsive luciferase in HEK 293T cells expressing Olfr168; type: cell-based; details: HEK 293T cells transiently expressing Olfr168, Gaolf, RTP1S, pGlosensor-22
Excerpt: (§4) In order to verify whether or not the mouse-derived olfactory receptors obtained in the above 3) and 4) surely respond to odor molecules used for screening, a system in which adenylate cyclase is activated from a olfactory receptor through heterotrimeric G protein including Gaolf to accumulate cAMP from ATP, and luciferase expression is induced in an intracellular cAMP concentration-dependent manner, was reconstructed in HEK 293 cells.
(§5) Specifically, each of mouse-derived olfactory receptor genes, Olfr168, Olfr205, Olfr45 and Olfr166, and DNA coding for the amino acid sequence shown in SEQ ID NO:9 were fused. The obtained genes were incorporated into pME18S plasmid incorporated into downstream of SRa promoter, a plasmid having a base sequence coding for the amino acid sequence shown in SEQ ID NO:2 to allow Gaolf to be expressed, a plasmid to allow Receptor-transporting protein 1S (RTP1S) having a base sequence shown in SEQ ID NO:6, which is a factor to raise the efficiency of presentation of olfactory receptors from the Golgi body to the cell surface, to be expressed, and a cAMP-responsive luciferase expressing plasmid pGlosensor-22 (Promega Corporation). The plasmids are introduced into HEK 293T cells by Lipofectamine 2000 (Life Technologies) to cause transient expression.

Olfr205 [5] = biological target: T2, Olfr205; experiment: Reconstruction experiment: cAMP-responsive luciferase in HEK293 cells expressing Olfr205; type: cell-based
Excerpt: as §4, §5

Olfr45 = Olfr45 (Mus musculus, UniProt A0JLW4); experiment: cell-based
Experimental: (§6) The olfactory epithelium-derived cell solution obtained above was subjected to centrifugation at 1000 rpm for 5 minutes (2420, KUBOTA Co.) to remove the supernatant, and to this, a Ca^2+ ringer solution containing […] Fluo4-AM (F312, Dojindo) and 0.02 wt % Pluronic F-127 (P6867, Molecular Probes) was then added. A polystyrene slide having about 400000 nano chambers with a diameter of […] for As OneCell Picking system (AS ONE Corporation; automated single-cell analysis and isolation system [equipped with temperature control system, time lapse system, perfusion system]; Yoshimoto, et al., Scientific Reports Vol. 3 (2013) 1191; hereinafter this can be referred to as “OneCell system” in the description) was immersed in 2% PVP (polyvinyl pyrrolidone (NACALAI TESQUE, INC.)) and then put on a perfusion jig for the OneCell system. […]
(§7) Subsequently, the slide was put on a prescribed site of the OneCell system and maintained with a Ca^2+ ringer solution having been circulated, and fluorescent images derived from Fluo-4 of each olfactory epithelium-derived cell included in the nano chambers were observed through 4×objective lens, and changes in fluorescence intensity over time were recorded. […]

Olfr166 [6] = biological target: T3, Olfr166 (Mus musculus, UniProt Q8VGX2); details: HG28-24 cells, stimulation by pyridine
Experimental: as §6, §7

Olfr166 [7] = biological target: T3, Olfr166; experiment: cell-based
Excerpt: as §4, §5

[8] = tested on: human-derived olfactory receptor; experiment: Human olfactory receptor-expressing cell array (404 sites, HEK293-C1/2 strain) on OneCell system; type: cell-based; details: concentration of 10 mM
Excerpt: In the substrate used, hydrophilicity is increased by plasma treatment of the surface of a slide glass (Matsunami Glass Ind., Ltd.) by a plasma modifier (PM100, Yamato Scientific Co., Ltd.) It should be noted that a machine used for dot printing is a LaboJet-500 manufactured by MicroJet. […] When the array is left to stand on specific culture conditions and observed after 2 days, it is expected that added HEK293-C1/2 strain is proliferated on the sites on which the plasmid has been immobilized to form colonies. After that, the substrate having formed colonies thereon is loaded on the above OneCell system in the method shown in 2).

[9] = 3 mM 2-pentanone for 20 seconds every two minutes, measured 5 times
[10] = stimulation by 2-pentanone, experiment independently carried out 5 times, read-out: relative value of increased Fluo-4 fluorescence intensity (high K+ ringer depolarization considered 100%)

T3 sequence (Q8VGX2 1-312): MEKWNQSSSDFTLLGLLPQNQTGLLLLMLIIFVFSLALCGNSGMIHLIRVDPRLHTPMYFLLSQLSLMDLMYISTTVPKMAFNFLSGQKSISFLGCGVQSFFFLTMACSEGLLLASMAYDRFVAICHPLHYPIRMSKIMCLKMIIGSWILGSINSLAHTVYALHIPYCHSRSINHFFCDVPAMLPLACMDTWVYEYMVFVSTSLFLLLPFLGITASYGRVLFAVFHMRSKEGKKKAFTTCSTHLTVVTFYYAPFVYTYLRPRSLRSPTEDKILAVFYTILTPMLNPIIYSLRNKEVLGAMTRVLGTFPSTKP
Sequence of Olfr45 (A0JLW4 1-311): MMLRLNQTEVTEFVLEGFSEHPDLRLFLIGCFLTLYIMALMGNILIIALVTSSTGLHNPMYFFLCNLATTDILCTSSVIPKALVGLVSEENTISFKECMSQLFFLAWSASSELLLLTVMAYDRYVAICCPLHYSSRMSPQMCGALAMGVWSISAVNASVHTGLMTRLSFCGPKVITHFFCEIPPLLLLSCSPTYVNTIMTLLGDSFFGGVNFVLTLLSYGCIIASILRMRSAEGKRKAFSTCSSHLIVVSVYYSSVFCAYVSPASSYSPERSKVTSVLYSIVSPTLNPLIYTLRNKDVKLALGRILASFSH
Sequence of Olfr1258 (Q8VGN6 1-311): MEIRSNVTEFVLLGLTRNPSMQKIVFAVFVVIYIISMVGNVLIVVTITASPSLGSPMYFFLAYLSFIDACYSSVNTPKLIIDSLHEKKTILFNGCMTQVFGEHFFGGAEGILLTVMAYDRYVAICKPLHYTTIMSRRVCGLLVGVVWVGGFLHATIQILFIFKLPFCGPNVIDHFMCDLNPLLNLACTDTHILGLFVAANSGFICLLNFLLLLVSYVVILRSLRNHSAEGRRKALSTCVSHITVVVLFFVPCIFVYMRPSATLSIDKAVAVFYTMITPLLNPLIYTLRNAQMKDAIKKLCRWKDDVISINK

Structure (SMILES): CCC(C)=O [2-butanone]
- EC50 (Olfr1258): ~1.5 mM

Structure (SMILES): CCCC(C)=O [2-pentanone]
- number of olfactory sensory neurons that reacted with the odor molecule [1]: approximately 100
- increase in transient fluorescence intensity derived from Fluo-4 (Olfr168 [2]; [9]): 46±12
- Emax (Olfr168 [2]; [10]): 74 ± 3%
- increase in transient fluorescence intensity derived from Fluo-4 (Olfr205 [3]; [9]): 38±10
- Emax (Olfr205 [3]; [10]): 67 ± 4%
- EC50 (Olfr168 [4]): 2.1 ± 0.6 mM
- EC50 (Olfr205 [5]): ~4 mM

Structure (SMILES): c1ccncc1 [pyridine]
- increased amount of fluorescence intensity derived from Fluo-4 (Olfr45; IG04-13 cells, stimulation by pyridine): 195±70
- Emax (Olfr45; read-out: relative value of increased Fluo-4 fluorescence intensity (high K+ ringer depolarization considered 100%)): 120 ± 6%
- increased amount of fluorescence intensity derived from Fluo-4 (Olfr166 [6]): 153±47
- relative value of increased Fluo-4 fluorescence intensity (high K+ ringer depolarization considered 100%) (Olfr166 [6]; experiment independently carried out 5 times): 132±5%
- EC50 (Olfr166 [7]): ~5 mM

Structure (SMILES): COc1cc(C=O)ccc1O [vanillin]
- fluorescence intensity response of cells to the odor molecule [8]: increase in fluorescence intensity was observed in some cells
